In ChEMBL document CHEMBL1201862, “PubChem BioAssay data set” (2004):
Activity calls are given as the source filed them.

Legend:
[1] = molecular target: T1, Sentrin-specific protease 6 (Homo sapiens, UniProt Q9GZR1); type: functional;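 note: Luminescence-based dose-response confirmatory assay of SENP6 inhibition, following up an ultra-high-throughput screen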
T1 sequence (Q9GZR1 whole entry): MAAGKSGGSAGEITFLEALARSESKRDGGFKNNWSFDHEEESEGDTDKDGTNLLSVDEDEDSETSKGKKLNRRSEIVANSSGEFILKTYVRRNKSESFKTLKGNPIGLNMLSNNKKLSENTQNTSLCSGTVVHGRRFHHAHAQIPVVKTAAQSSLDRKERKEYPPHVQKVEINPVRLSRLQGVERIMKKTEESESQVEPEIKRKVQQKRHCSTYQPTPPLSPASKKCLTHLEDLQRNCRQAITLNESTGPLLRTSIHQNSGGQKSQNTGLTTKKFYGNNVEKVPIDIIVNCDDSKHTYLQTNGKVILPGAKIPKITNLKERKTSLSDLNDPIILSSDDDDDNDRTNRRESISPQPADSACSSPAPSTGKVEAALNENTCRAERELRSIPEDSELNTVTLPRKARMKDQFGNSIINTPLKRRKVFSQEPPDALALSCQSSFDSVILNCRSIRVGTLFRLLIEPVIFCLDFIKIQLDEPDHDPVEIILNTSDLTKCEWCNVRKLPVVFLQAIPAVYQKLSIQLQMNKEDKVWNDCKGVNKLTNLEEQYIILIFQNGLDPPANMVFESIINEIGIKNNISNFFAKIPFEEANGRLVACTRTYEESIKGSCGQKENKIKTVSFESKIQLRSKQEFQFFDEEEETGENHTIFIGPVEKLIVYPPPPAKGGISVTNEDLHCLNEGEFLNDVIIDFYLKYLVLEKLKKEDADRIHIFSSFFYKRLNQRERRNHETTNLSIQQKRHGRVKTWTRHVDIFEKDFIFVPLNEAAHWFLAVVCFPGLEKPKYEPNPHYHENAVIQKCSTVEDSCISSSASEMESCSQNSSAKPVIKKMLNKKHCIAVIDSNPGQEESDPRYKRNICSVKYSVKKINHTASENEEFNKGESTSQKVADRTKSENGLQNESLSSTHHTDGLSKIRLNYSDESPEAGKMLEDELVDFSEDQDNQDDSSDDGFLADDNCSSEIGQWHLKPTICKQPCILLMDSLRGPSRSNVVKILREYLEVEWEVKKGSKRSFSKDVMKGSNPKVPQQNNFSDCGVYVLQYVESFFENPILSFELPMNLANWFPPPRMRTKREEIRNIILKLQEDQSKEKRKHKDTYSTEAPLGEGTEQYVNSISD

[2] = molecular target: T2, Hexokinase HKDC1 (Homo sapiens, UniProt Q2TB90); assay: inhibition of HKDC1 glucose phosphorylation – biochemical, W721R variant, dose response (AID 504729); type: functional
T2 sequence (Q2TB90 whole entry): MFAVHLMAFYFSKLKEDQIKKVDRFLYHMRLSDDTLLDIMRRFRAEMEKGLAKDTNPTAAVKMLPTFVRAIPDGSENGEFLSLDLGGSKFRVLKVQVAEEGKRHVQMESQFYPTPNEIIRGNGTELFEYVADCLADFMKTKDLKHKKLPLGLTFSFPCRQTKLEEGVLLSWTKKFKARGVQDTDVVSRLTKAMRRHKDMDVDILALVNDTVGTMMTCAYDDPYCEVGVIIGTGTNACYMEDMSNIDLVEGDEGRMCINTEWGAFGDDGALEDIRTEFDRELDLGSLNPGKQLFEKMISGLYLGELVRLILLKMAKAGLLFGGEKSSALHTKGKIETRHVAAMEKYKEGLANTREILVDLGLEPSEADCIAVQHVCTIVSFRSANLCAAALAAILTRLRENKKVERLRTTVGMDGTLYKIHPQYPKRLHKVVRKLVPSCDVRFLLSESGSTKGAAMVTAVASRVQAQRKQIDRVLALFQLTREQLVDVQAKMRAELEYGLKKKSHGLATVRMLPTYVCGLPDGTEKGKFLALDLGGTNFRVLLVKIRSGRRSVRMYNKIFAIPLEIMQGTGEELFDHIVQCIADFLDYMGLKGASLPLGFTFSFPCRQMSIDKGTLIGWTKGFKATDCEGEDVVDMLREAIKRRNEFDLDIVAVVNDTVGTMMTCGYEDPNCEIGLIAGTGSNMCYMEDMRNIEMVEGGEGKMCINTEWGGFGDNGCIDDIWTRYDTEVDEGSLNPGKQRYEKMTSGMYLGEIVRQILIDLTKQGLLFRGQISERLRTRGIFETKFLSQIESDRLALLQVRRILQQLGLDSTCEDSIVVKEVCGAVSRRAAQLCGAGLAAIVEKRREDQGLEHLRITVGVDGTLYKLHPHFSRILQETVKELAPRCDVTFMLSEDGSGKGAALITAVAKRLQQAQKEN

[3] = molecular target: Photoreceptor-specific nuclear receptor (Homo sapiens, UniProt Q9Y5X4); type: functional, cell-based;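 note: CHO-S cells with Gal4-NCOR and VP16-NR2E3 two-hybrid luciferase reporter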
Chain of Photoreceptor-specific nuclear receptor (Q9Y5X4 whole entry, the tested form may be a part): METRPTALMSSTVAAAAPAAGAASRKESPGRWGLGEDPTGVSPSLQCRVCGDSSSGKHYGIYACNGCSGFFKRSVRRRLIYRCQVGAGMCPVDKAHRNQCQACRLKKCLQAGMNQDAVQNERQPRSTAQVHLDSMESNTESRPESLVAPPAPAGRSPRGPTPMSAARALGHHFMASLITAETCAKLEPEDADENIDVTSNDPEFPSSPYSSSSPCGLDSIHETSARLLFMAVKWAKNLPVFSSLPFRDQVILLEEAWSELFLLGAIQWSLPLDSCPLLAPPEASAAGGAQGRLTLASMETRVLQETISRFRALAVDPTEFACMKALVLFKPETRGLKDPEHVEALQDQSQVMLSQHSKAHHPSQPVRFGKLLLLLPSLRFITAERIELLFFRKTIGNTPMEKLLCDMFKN

SMILES | IC50 [1] | IC50 [2] | IC50 [3]
Cc1ccc(NC2=CC(=O)C(=O)c3ccccc32)cc1 | 13.5 µM (active) |  | 
O=C(O)c1ccc(S(=O)(=O)/N=C2\C=C(Nc3ccccc3F)C(=O)c3ccccc32)cc1 |  | 3 µM (active) | 12.2 µM (inactive)
